According to US20160264593A1 (priority 2013, published 2016):

Test: Pharmacokinetic study of 153 (and metabolite endothal) in SD rats, iv and po; plasma, liver, brain
Assay type: in vivo
Conditions: for endothal detectable in brain samples: after single iv 153 at 1.25 mg/kg, 1.25 mg/kg
Method: The blood, liver and brain tissue samples were collected at predetermined times from rats. […] Compound were diluted shortly before use in 4% sodium bicarbonate for sterile injection (this is the standard pediatric solution of NaHCO3 with a pH of about 8.5).
Compound 153 was freshly prepared by diluting the drugs shortly before use in 4% sodium bicarbonate for sterile injection (this is the standard pediatric solution of NaHCO3 with a pH of about 8.5). The final concentrations of 153 solutions were 0.25 mg/mL. The 153 solutions were administered via iv or po route at dose volume of 5 ml/kg according to the latest body weight. Compound 157 was freshly prepared by diluting the drugs shortly before use in 4% sodium bicarbonate for sterile injection (this is the standard pediatric solution of NaHCO3 with a pH of about 8.5). The final concentrations of […] solutions were 0.3 mg/mL. The 157 solutions were administered via iv or po route at dose volume of 5 ml/kg according to the latest body weight.
Twelve (12) female SD rats per group were dosed by iv with 153 or 157. The rats were fasted overnight prior to dosing, with free access to water. Foods were withheld for 2 hours post-dose. Blood, liver and brain tissue samples in two animals each group were collected at each time point, within 10% of the scheduled time for each time point. Two extra animals were used for analytic method development.
Blood (>0.3 mL) were collected via aorta abdominalis in anaesthetic animals into tubes containing heparin at 15 min, 1, 2, 6, 10 and 24 hours after iv administration. Liver and brain tissues were collected immediately after animal death. The liver and brain tissues were excised and rinsed with cold saline to avoid blood residual. Upon collection, each sample was placed on ice and the blood samples were subsequently centrifuged (4° C., 11000 rpm, 5 min) to separate plasma. The obtained plasma, liver and brain tissue samples were stored at −70° C. until LC-MS/MS analysis.
Two (2) female SD rats per group were dosed by po with 153 or 157. The rats were fasted overnight prior to dosing, with free access to water. Foods were withheld for 2 hours post-dose. Blood samples (>0.3 mL) were collected via aorta abdominalis in anaesthetic animals into tubes containing heparin at 30 min, 1, 2, 6, 10 and 24 hours after po administration.
To each sample, 20 μL IS-D (for blank samples, 20 μL acetonitrile:water (1:1) was added) and 300 μl acetonitrile was added. The sample mixture was vortexed for approximately 3 min. After centrifugation at 10000 rpm for 5 min at 4° C., 100 μL of the upper layer was transferred to a new tube and added 200 μL 0.4% formic acid in water (pH 6.0). The mixture was vortexed for approximately 3 min before injected onto the LC/MS/MS system for analysis.
On the day of the assay, the frozen liver and brain samples were thawed unassisted at room temperature. An about 200 mg weighed sample of each thawed tissue was placed into a plastic tube with water (0.6 mL) to facilitate homogenization. Tissue processing was conducted using a homogenizer for approximately 1 min, 200 μl homogenate was transferred into a fresh Eppendorf tube. To each tube, 50 μL IS-D was added and mixed. Then 600 μl acetonitrile was added and the sample mixture was vortexed for approximately 3 min. After centrifugation at 10000 rpm for 5 min at 4° C., 400 μL of the upper layer was transferred to a new tube and evaporate the supernatant to dryness at 35° C. Reconstitute the residue with 200 μL of 0.4% formic acid in water (pH6.0), and vortex for 3 min, submit for LC-MS/MS analysis.
Frozen unknown plasma samples were completely thawed at room temperature and vortexed thoroughly. With a pipette, 50 μL of plasma was transferred into a 2.0 mL Eppendorf tube. 50 μL of 0.1N HCl and 800 μL ethyl acetate were added into each sample. The sample mixture was vortexed for approximately 3 min.

In the case of `O=C(O)C1C2CCC(O2)C1C(=O)O` (stereo not drawn) [Endothal, 7-oxabicyclo[2.2.1]heptane-2,3-dicarboxylic acid], the Endothal plasma concentration (after iv 153, 10 hr, Rat 2) is reported as “BLQ”, the Endothal plasma concentration (after iv 153, 24 hr, Rat 1) is reported as “BLQ” and the Endothal plasma concentration (after iv 153, 24 hr, Rat 2) is reported as “BLQ”. For the same molecule, the Endothal plasma concentration (after po 153, 10 hr, Rat 1) was “BLQ”, the “endothal detectable in brain samples” value was “undetectable” and the “endothal detectable in brain samples” value (listed as endothal) was “not detectable”.
